According to patent US20240246905A1 (University of Leicester, priority 2021, published 2024):
In brackets after ≈: the same amount, converted by molar mass. Read-outs that look alike come from different tables or passages of the source.

How the values were obtained:
[1] = system: MRSA 252; assay: MIC, broth micro-dilution; assay type: cell-based, Staphylococcus aureus
Experimental: (§1) E. coli DH5α, P. aeruginosa PA01 and the 53 S. aureus strains were recovered from frozen (−80° C.) glycerol (15% v/v) stocks on Lysogeny agar (LA)—Gram negative and trypticase soy agar (TSA)—plates at 37° C. for 24 hours. Single colonies were placed in either 3 mL Lysogeny broth (LB)—Gram negative or trypticase soy broth (TSB)—Gram positive and incubated at 37° C., 250 rpm for 18 hours.
(§2) Antibiotic MIC's were determined by a broth micro-dilution method according to Clinical Standard Laboratory Institute (CSLI) Guidelines (2017). Briefly, 96-well microplates, each containing 195 μL of the 1:2 dilution antibiotic in TSB, were inoculated with 5 μL of overnight cultured bacteria, diluted to give a starting bacterial concentration of 5×10^5 CFU/mL. The optical density of each well inoculated was recorded every 12 minutes over an 18 hour period at 37° C. The data from this was plotted in OriginPro8 (OriginLab) and sigmoidal curves fitted using the dose response function. Fitted values for each curve were used to calculate the MIC.

[2] = system: MSSA 476; assay: MIC, broth micro-dilution; assay type: cell-based, Staphylococcus aureus
Experimental: as §1, §2

[3] = system: MRSA 252; assay: Disc diffusion (Kirby-Bauer), zone of inhibition; assay type: cell-based, Staphylococcus aureus; conditions: 500 μg/mL, '/' = no zone; for zone of inhibition at 500 µg/mL: Staphylococcus aureus
Experimental: as §1
(§3) The antibiotic activity was determined using a Kirby-Bauer method according to Clinical Standard Laboratory Institute (CSLI) Guidelines (2017). Briefly, 180 μL of a 1 in 200 dilution (in LB or TSB) of overnight cultures of selected Gram negative and Gram positive bacteria were applied to an agar plate containing the solid growth medium, Mueller-Hinton agar (MHA). Sterile discs, inoculated with 50 μL of antibiotic, were first added to the agar plate before the plates were incubated for 24 hours at 37° C. Following incubation, the zone of inhibition (if it existed) was recorded.

[4] = system: MSSA 476; assay: Disc diffusion (Kirby-Bauer), zone of inhibition; assay type: cell-based, Staphylococcus aureus; conditions: 500 μg/mL, '/' = no zone; for zone of inhibition at 500 µg/mL: Staphylococcus aureus
Experimental: as §1, §3

[5] = system: Galleria mellonella; assay: Systemic toxicity, Galleria mellonella survival; conditions: n = 10, injection of 500 μg/mL
Experimental: Galleria mellonella wax worms purchased from www.livefoods.co.uk were inoculated with 10 μL of a series of dilutions of the antibiotics synthesised in-house. The antibiotic concentrations chosen for this study were the following: 1000 μg/mL, 500 μg/mL, 250 μg/mL, 125 μg/mL and 31.25 μg/mL. Each dilution was injected into 10 individual wax worms through their last pro-leg. The injected wax worms were stored at 25° C. for 5 days. The cytotoxicity was determined as the percentage survival rate of Galleria mellonella Wax worms after 5 days inoculation.

[6] = system: Staphylococcus aureus 15981; assay: Disc diffusion (Kirby-Bauer), zone of inhibition; assay type: cell-based; conditions: 500 μg/mL, '/' = no zone
Experimental: as §1, §3

[7] = system: Escherichia coli DH5α; assay: Disc diffusion (Kirby-Bauer), zone of inhibition; assay type: cell-based
Experimental: as §1, §3

[8] = system: C. tropicalis ATCC 750; assay: Anti-fungal MIC (CO-ADD); assay type: cell-based; conditions: Candida tropicalis, ATCC750, read-out: MIC
Experimental: (§4) Fungal strains were cultured for 3 days on Yeast Extract-Peptone Dextrose (YPD) agar at 30° C. A yeast suspension of 1×10^6 to 5×10^6 CFU/mL (as determined by OD530) was prepared from five colonies. […] All plates were covered and incubated at 35° C. for 36 hours without shaking. […] The absorbance was measured using a Biotek Multiflo Synergy HTX plate reader. In both cases, the percentage of growth inhibition was calculated for each well, using the negative control (media only) and positive control (fungi without inhibitors) on the same plate. […] Due to a higher variance in growth and inhibition, a lower threshold was applied to the data for C. neoformans. In addition, the maximal percentage of growth inhibition is reported as DMax, indicating any compounds with marginal activity.

[9] = system: C. neoformans H99; ATCC 208821; assay: Anti-fungal MIC (CO-ADD); assay type: cell-based; conditions: Cryptococcus neoformans, ATCC208821, read-out: MIC
Experimental: as §4

[10] = system: C. tropicalis ATCC 450; assay: Anti-fungal MIC (CO-ADD); assay type: cell-based; conditions: Candida tropicalis, ATCC450, read-out: MIC
Experimental: as §4

[11] = system: C. deuterogattii ATCC 32609; assay: Anti-fungal MIC (CO-ADD); assay type: cell-based; conditions: read-out: MIC
Experimental: as §4

[12] = system: C. glabrata ATCC 90030; assay: Anti-fungal MIC (CO-ADD); assay type: cell-based; conditions: Nakaseomyces glabratus, ATCC90030, read-out: MIC
Experimental: as §4

[13] = system: C. albicans ATCC 90028; assay: Anti-fungal MIC (CO-ADD); assay type: cell-based; conditions: Candida albicans, ATCC90028, read-out: MIC
Experimental: as §4

[14] = system: MRSA 252, MSSA 476, S. aureus 15981, P. aeruginosa PA01 and E. coli DH5α; assay: Disc diffusion primary screening, five strains (statements in words); assay type: cell-based; conditions: 500 μg/mL
Experimental: As such, the minimum inhibition concentration (MICs) of biologically active compounds were further assessed using the broth dilution method against the S. aureus strains; MRSA 252 and MSSA 476 (Table 1). The results of both assays enabled key structural elements and functional groups required for the compounds to retain their antibiotic activity to be identified.
as §3

[15] = system: HEK293 cells; assay: Cytotoxicity assay, resazurin (CO-ADD); conditions: HEK 293
Experimental: The cytotoxicity studies were performed by CO-ADD (The Community for Open Antimicrobial Drug Discovery), funded by the Wellcome trust (UK) and the University of Queensland, Australia.^(28) In this study, the compounds were screened against a human embryonic kidney cell line, HEK293, at a set concentration of 32 μg/mL.
DMEM supplemented with 10% FBS was used as growth media and the cells were incubated together with the compounds for 20 hours at 37° C. in 5% CO2.
Cytotoxicity (or cell viability) was measured by fluorescence, excitation: 560/10 nm, emission: 590/10 nm (F560/590), after addition of 5 μL of 25 μg/mL Resazurin (2.3 μg/mL final concentration) and after incubation for further 3 h at 37° C. in 5% CO2. The fluorescence intensity was measured using a Tecan M1000 Pro monochromator plate reader, using automatic gain calculation CC50 (concentration at 50% cytotoxicity) were calculated by curve fitting the inhibition values vs. log(concentration) using sigmoidal dose-response function, with variable fitting values for bottom, top and slope. The curve fitting was implemented using Pipeline Pilot's dose-response component.

[16] = system: Pseudomonas aeruginosa PA01; assay: Disc diffusion (Kirby-Bauer), zone of inhibition; assay type: cell-based; conditions: 500 μg/mL, '/' = no zone
Experimental: as §1, §3

[17] = system: red blood cells; assay: Hemolysis assay (CO-ADD); assay type: cell-based; conditions: 32 μg/mL highest concentration tested
Text: A problem often encountered by emerging drugs is hemolysis, also known as drug-induced immune hemolytic anemia.

[18] = Stability in the presence of glutathione (NMR); assay type: physicochemical; conditions: up to 24 hours, DMSO-D6
Text: It is well known that compounds bearing an isocyanide group are usually highly reactive, capable of reacting with electrophiles, nucleophiles and radicals.^(30) As a result, it was important to identify any stability issues which might be encountered by the lead compounds, both in storage and in the presence of glutathione and cysteine. […] Another common feature of the lead compounds is the vinyl fragment. It was hypothesized that the presence of glutathione and cysteine found in eukaryotic cells could potentially interact with the electrophilic alkene group in the compounds, thus shutting down their antibiotic activity. To probe this potentially detrimental in vivo process, compound 39 was subjected to glutathione for up to 24 hours whilst compound 41 was added to cysteine for the same length of time.

[19] = system: Manduca sexta; assay: Systemic toxicity, Manduca sexta survival and mass growth; assay type: in vivo; conditions: 1% solution, by 48 hours
Text: The use of Galleria for evaluating systemic toxicity study provided a straightforward method for screening any immediate toxicity issues associated with the lead compounds. One problem encountered with this model is the complications of obtaining quantitative results since only live/dead outcomes can be recorded. As an alternative and quantitative approach for systemic toxicity, it was decided to use a new model using Manduca sexta as the subject, replacing the much smaller and difficult to handle, Galleria mellonella. The Manduca sexta assay allows for the mass change of the larvae to be measured over hours/days, thus giving information not only on survival but also on the organisms' fitness^(26) Promisingly, the 72 hour assay performed at concentrations of 1 mg/mL on the selected lead compounds gave identical results to those obtained using the Galleria infection model, indicating no apparent toxicity issues for the compounds. […] As a […] control, the Manduca were injected with a 1% solution of NaN3. […]
[…] The mass of each hornworm was measured before and up to 72 hours after injection at set 24 hour intervals. The systemic toxicity was determined as the percentage survival and mass growth relative to the positive control at the pre-determined set intervals.

[20] = system: MRSA 252; assay: Resistance testing by serial passaging; assay type: cell-based, S. aureus; conditions: 18 serial passage cycles
Experimental: Next a serial passage study was undertaken in order to elucidate the speed at which target bacteria might either evolve resistance or select for persister cells within that population following exposure to compound 36.
For resistance development by serial passaging, 5 μL of overnight cultured MRSA 252 cells were added to individual wells in a 96-well plate containing 195 μL of TSB supplemented with a range of antibiotic concentrations and incubated at 37° C. for 18 hours. Ofloxacin served as a control. Wells where bacterial growth was visible after 18 hours were plated on TSA plates and incubated at 37° C. for a further 18 hours. Single colonies obtained from the overnight cultured bacteria were then inoculated into fresh TSB medium, incubated at 37° C. for 18 hours before being used in the next cycle of the resistance testing. This process continued for 18 cycles.

[21] = system: insect phenol-oxidases; assay: Inhibition of insect phenol-oxidases; assay type: biochemical
[22] = system: methicillin resistant Staphylococcus aureus strains; assay type: cell-based; conditions: clinically relevant methicillin resistant Staphylococcus aureus strains

## [C-]#[N+]C=Cc1c[nH]c2ccccc12 [Compound 25, 3-(2-Isocyanovinyl)-1H-indole]
[1]
  MIC: 61 µg/mL (≈ 363 µM)
[2]; Staphylococcus aureus, MSSA
  MIC: 166 µg/mL (≈ 987 µM)
[3]; MRSA
  zone of inhibition at 500 µg/mL: 18 mm
[4]; MSSA
  zone of inhibition at 500 µg/mL: 16 mm
[5]
  % survival after 5 days: 90%
[6]; Staphylococcus aureus, 15981, Staphylococcus aureus 15981
  zone of inhibition at 500 µg/mL: 16 mm

## [C-]#[N+]C=Cc1c[nH]c2ccccc12 [Compound 26, 3-(2-Isocyanovinyl)-1H-indole]
[1]
  MIC: 20 µg/mL (≈ 119 µM)
[2]
  MIC: 222 µg/mL (≈ 1320 µM)
[3]
  Zone of inhibition: 20 mm
[4]
  Zone of inhibition: 20 mm
[5]
  % survival after 5 days: 100%
[7]; Escherichia coli
  zone of inhibition at 500 µg/mL: 20 mm
[6]; Staphylococcus aureus 15981
  Zone of inhibition: 22 mm

## [C-]#[N+]/C=C/c1ccccc1/C=C/c1ccccc1 [Compound 38, 1-((E)-2-Isocyanovinyl)-2-((E)-styryl)benzene]
[8]
  MIC: 8 to 16 µg/mL
[9]
  MIC: 4 µg/mL
[10]
  MIC: 2 µg/mL
[11]
  MIC: 2 µg/mL
[12]
  MIC: > 32 µg/mL
[13]
  MIC: 2 to 4 µg/mL
[1]; Staphylococcus aureus, read-out: MIC
  MIC: 5 µg/mL (≈ 21.6 µM)
[2]; Staphylococcus aureus, MSSA, read-out: MIC
  MIC: 3 µg/mL (≈ 13 µM)
[14]
  antibiotic activity in disc diffusion assays (in words): retained antibiotic activity
[3]; read-out: Zone of inhibition
  zone of inhibition at 500 µg/mL: 30 mm
[4]; read-out: Zone of inhibition
  zone of inhibition at 500 µg/mL: 30 mm
[15]
  Concentration toxic to HEK 293 cells: >32000 ng/mL
[7]; Escherichia coli DH5α, 500 μg/mL, '/' = no zone, read-out: Zone of inhibition
  zone of inhibition at 500 µg/mL: 28 mm
[6]; Staphylococcus aureus 15981, read-out: Zone of inhibition
  zone of inhibition at 500 µg/mL: 28 mm
[16]
  zone of inhibition at 500 µg/mL: 26 mm
[17]
  Hemolytic activity (HC10): >32 µg/mL

## [C-]#[N+]/C=C/c1ccccc1/C=C/c1ccncc1 [Compound 39]
[1]
  MIC: 12 µg/mL (≈ 51.7 µM)
[2]
  MIC: 15 µg/mL (≈ 64.6 µM)
[14]
  antibiotic activity in disc diffusion assays (in words): retaining its activity against the Gram negative P. aeruginosa and E. coli
[3]
  Zone of inhibition: 28 mm
[4]
  Zone of inhibition: 32 mm
[7]; Escherichia coli DH5α, 500 μg/mL, '/' = no zone
  Zone of inhibition: 12 mm
[6]; Staphylococcus aureus 15981
  Zone of inhibition: 26 mm
[16]
  Zone of inhibition: 20 mm
[18]
  structure after exposure to glutathione (NMR): no change in the structure

## [N-]=[N+]=[N-].[Na+] [Negative Control (NaN3), NaN3, reference compound]
[19]
  survival of Manduca sexta: had all died
[5]
  % survival after 5 days: 0%

## CC1COc2c(N3CCN(C)CC3)c(F)cc3c(=O)c(C(=O)O)cn1c23 (centres unmarked) [ofloxacin, reference compound]
[20]
  increase in MIC after serial passage: greater than 10 fold

## Byelyankacin
[21]
  inhibition of insect phenol-oxidases (in words): inhibitor of insect phenol-oxidases
[22]
  antibiotic activity (in words): good antibiotic activity

## phenol vinyl isocyanide [(E)-4]
[22]
  antibiotic activity (in words): good antibiotic activity
